Our source for the EC50 and CC50 values is ChEMBL document CHEMBL1135383, “Increase of the adenallene anti-HIV activity in cell culture using its bis(tBuSATE) phosphotriester derivative” (Bioorg Med Chem Lett, 2002).

Assay [1] has as its system CEM-SS. The assay can be described thus: Effective concentration required to inhibit the replication of HIV-1 in CEMSS human T4 lymphoblastoid cell lines. Format: functional, cell-based.
For assay [2], the system named is CEM-SS. The assay can be described thus: Cytotoxic concentration required to inhibit the replication of HIV-1 in CEM-SS human T4 lymphoblastoid cell lines. Format: functional.
In assay [3] the test system is MT2. Kind of assay: Effective concentration required to inhibit the replication of HIV-1 in MT-2 human T4 lymphoblastoid cell lines. Format: functional, cell-based.
The subject of assay [4] is MT2. Kind of assay: Cytotoxic concentration required to inhibit the replication of HIV-1 in MT-2 human T4 lymphoblastoid cell lines. Format: functional.
Assay [5] deals with MT4. Kind of assay: Cytotoxic concentration required to inhibit the replication of HIV-1 in MT-4 human T4 lymphoblastoid cell lines. It is filed as functional.
For assay [6], the system named is MT4. Kind of assay: Effective concentration required to inhibit the replication of HIV-1 in MT-4 human T4 lymphoblastoid cell lines. Format: functional, cell-based.

Structures are written as SMILES.

On to `CC(C)(C)C(=O)SCCOP(=O)(OCC=C=Cn1cnc2c(N)ncnc21)OCCSC(=O)C(C)(C)C`, for which the results for the concentration giving a half-maximal response (EC50) in the assay with CEM-SS [1], in the assay on MT2 [3] and in the assay on MT4 [6] were 1.2 µM, 6.4 µM and 8.9 µM, respectively. Further, the half-maximal cytotoxic concentration (CC50) with CEM-SS [2] is over 10 µM; in the assay on MT2 [4], 28 µM; in the assay on MT4 [5], over 10 µM.
In the case of `Nc1ncnc2c1ncn2C=C=CCO` (racemic), the EC50 with CEM-SS [1] is 56 µM; in the assay with MT2 [3] it was over 100 µM; in the assay with MT4 [6] it was over 100 µM. The CC50 with CEM-SS [2], in the assay with MT2 [4] and in the assay with MT4 [5] was over 100 µM each time.
